{"source": "paper PMC12044458", "about": "(ACS Omega, 2025)", "key": {"[1]": {"test_system": "Poly(I:C) HMW fluorescein (RNA, polymer, hypoxanthine (inosine) in place of every G of strand 1 (polyinosinic acid)) G/C", "experiment": "microscale thermophoresis", "conditions": "PBS-T, PBS-T pH 7.4, 200 nM labelled Poly(I:C)"}, "[2]": {"test_system": "Poly(I:C) Na^+ (RNA, polymer, hypoxanthine (inosine) in place of every G of strand 1 (polyinosinic acid)) G/C", "experiment": "fluorescence titration of compound emission", "conditions": "PBS, <1% DMSO, 5 µM compound, per base pair"}, "[3]": {"test_system": "Poly(I:C) Na^+ γ (RNA, polymer, hypoxanthine (inosine) in place of every G of strand 1 (polyinosinic acid); gamma-irradiated, possible strand breaks) G/C", "experiment": "fluorescence titration of compound emission", "conditions": "PBS, 0 mM Mg2+, <1% DMSO, 5 µM compound, per base pair"}, "[4]": {"test_system": "Poly(I:C) HMW (RNA, polymer, hypoxanthine (inosine) in place of every G of strand 1 (polyinosinic acid)) G/C", "experiment": "fluorescence titration of compound emission", "conditions": "PBS, 0 mM Mg2+, <1% DMSO, 5 µM compound, per base pair"}, "[5]": {"test_system": "Poly(I:C) Na^+ (RNA, polymer, hypoxanthine (inosine) in place of every G of strand 1 (polyinosinic acid)) G/C", "experiment": "UV melting", "conditions": "PBS, 0 mM Mg2+, compound concentration not in material, per base"}, "[6]": {"test_system": "Poly(I:C) HMW (RNA, polymer, hypoxanthine (inosine) in place of every G of strand 1 (polyinosinic acid)) G/C", "experiment": "UV melting", "conditions": "PBS, 0 mM Mg2+, compound concentration not in material, per base"}, "human RNase [7]": {"molecular_target": "T1, human RNase", "T1 construct": "his-tag-labeled human RNase", "experiment": "microscale thermophoresis (MST)", "assay_type": "binding"}, "human RNase [8]": {"molecular_target": "T1, human RNase", "experiment": "microscale thermophoresis (MST), two-site fit; Kd2 =[…]", "assay_type": "binding"}, "human RNase [9]": {"molecular_target": "T1, human RNase", "experiment": "microscale thermophoresis (MST), two-site fit; Kd2 =[…]", "assay_type": "binding", "remark": "listed apart in the source"}, "[10]": {"test_system": "Poly(I:C) HMW (RNA, polymer, hypoxanthine (inosine) in place of every G of strand 1 (polyinosinic acid)) G/C", "experiment": "circular dichroism", "conditions": "PBS, 0 mM Mg2+, 100 µM compound and 100 µM Poly(I:C)"}, "[11]": {"conditions": "540 nm, 1:1 model, conditional constant, per base"}, "[12]": {"conditions": "540 nm, 1:2 model, not a 1:1 Ka"}, "[13]": {"conditions": "derived from two Tm (65 and 65)"}, "[14]": {"conditions": "derived from two Tm (66 and 67)"}, "[15]": {"conditions": "595 nm, 1:1 model, conditional constant, per base"}, "[16]": {"conditions": "595 nm, 1:2 model, not a 1:1 Ka"}}}
{"smiles": "CN(C)[C@@H]1C(=O)C(C(N)=O)=C(O)[C@@]2(O)C(=O)C3=C(O)c4c(O)cccc4[C@@](C)(O)[C@H]3C[C@@H]12", "values": [{"measurement": "Kd", "setting": "[1]; ligand stock 1 mM", "result": "448.1 ± 86.4", "unit": "µM"}, {"measurement": "Log(K)", "setting": "[2]; 0 mM Mg2+, 549 nm, 1:1 model, conditional constant, per base", "result": "4.64 ± 0.96"}, {"measurement": "Log(K)", "setting": "[2]; 0 mM Mg2+, 549 nm, 1:2 model, not a 1:1 Ka", "result": "11.18 ± 0.99"}, {"measurement": "Log(K)", "setting": "[3]; 505 nm, 1:1 model, conditional constant, per base", "result": "4.37 ± 0.56"}, {"measurement": "Log(K)", "setting": "[3]; 505 nm, 1:2 model, not a 1:1 Ka", "result": "9.57 ± 0.71"}, {"measurement": "Log(K)", "setting": "[4]; 549 nm, 1:1 model, conditional constant, per base", "result": "5.02 ± 1.05"}, {"measurement": "Log(K)", "setting": "[4]; 549 nm, 1:2 model, not a 1:1 Ka", "result": "11.70 ± 1.37"}]}
{"smiles": "C[C@H]1c2cccc(O)c2C(O)=C2C(=O)[C@]3(O)C(O)=C(C(N)=O)C(=O)[C@@H](N(C)C)[C@@H]3[C@@H](O)[C@@H]21", "values": [{"measurement": "melting temperature shift (ΔTm)", "setting": "[5]; derived from two Tm (64 and 65)", "result": -1, "unit": "°C"}, {"measurement": "melting temperature shift (ΔTm)", "setting": "[6]; derived from two Tm (67 and 67)", "result": 0, "unit": "°C"}, {"measurement": "Kd", "setting": "[1]; ligand stock 1 mM", "result": "366.2 ± 74.9", "unit": "µM"}, {"measurement": "Log(K)", "setting": "[2]; 0 mM Mg2+, 540 nm, 1:2 model, not a 1:1 Ka", "result": "9.85 ± 0.99"}, {"measurement": "Log(K)", "setting": "[2]; 10 mM Mg2+ (MgSO4), 537 nm, 1:1 model, conditional constant, per base", "result": "5.39 ± 0.96"}, {"measurement": "Log(K)", "setting": "[3]; [11]", "result": "4.14 ± 0.57"}, {"measurement": "Log(K)", "setting": "[3]; [12]", "result": "10.39 ± 1.8"}, {"measurement": "Log(K)", "setting": "[4]; [11]", "result": "4.62 ± 0.3"}, {"measurement": "Log(K)", "setting": "[4]; [12]", "result": "11.34 ± 1.81"}]}
{"smiles": "COc1cccc2c1C(=O)c1c(O)c3c(c(O)c1C2=O)C[C@@](O)(C(=O)CO)C[C@@H]3O[C@H]1C[C@H](N)[C@H](O)[C@H](C)O1", "note": "[doxorubicin]", "values": [{"measurement": "melting temperature shift (ΔTm)", "setting": "[5]; [13]", "result": 0, "unit": "°C"}, {"measurement": "melting temperature shift (ΔTm)", "setting": "[6]; [14]", "result": -1, "unit": "°C"}, {"measurement": "Kd", "setting": "human RNase [7]", "result": "4.8 ± 2", "unit": "µM"}, {"measurement": "Kd", "setting": "[1]; ligand stock 0.25 mM, Kd above tested range", "result": "251 ± 22", "unit": "µM"}, {"measurement": "Log(K)", "setting": "[2]; 0 mM Mg2+, 595 nm, 1:1 model, conditional constant, per base", "result": "5.03 ± 0.75"}, {"measurement": "Log(K)", "setting": "[2]; 0 mM Mg2+, 595 nm, 1:2 model, not a 1:1 Ka", "result": "10.69 ± 1.14"}, {"measurement": "Log(K)", "setting": "[3]; [15]", "result": "4.50 ± 0.72"}, {"measurement": "Log(K)", "setting": "[3]; [16]", "result": "10.13 ± 1.23"}, {"measurement": "Log(K)", "setting": "[4]; [15]", "result": "5.21 ± 0.75"}, {"measurement": "Log(K)", "setting": "[4]; [16]", "result": "11.23 ± 1.10"}]}
{"smiles": "C[C@H]1c2cccc(O)c2C(=O)C2=C(O)[C@]3(O)C(=O)C(C(N)=O)=C(O)[C@@H](N(C)C)[C@@H]3[C@@H](O)[C@@H]21", "note": "[doxycycline]", "values": [{"measurement": "Kd", "setting": "human RNase [8]", "result": "0.149 ± 0.052", "unit": "µM"}]}
{"smiles": "CN(C)c1ccc(O)c2c1C[C@H]1C[C@H]3[C@H](N(C)C)C(O)=C(C(N)=O)C(=O)[C@@]3(O)C(O)=C1C2=O", "note": "[minocycline]", "values": [{"measurement": "melting temperature shift (ΔTm)", "setting": "[5]; [13]", "result": 0, "unit": "°C"}, {"measurement": "melting temperature shift (ΔTm)", "setting": "[6]; [14]", "result": -1, "unit": "°C"}, {"measurement": "Kd", "setting": "human RNase [9]", "result": "0.509 ± 0.118", "unit": "µM"}, {"measurement": "binding", "setting": "[10]", "result": "yes"}]}
{"smiles": "CN(C)[C@@H]1C(O)=C(C(N)=O)C(=O)[C@@]2(O)C(O)=C3C(=O)c4c(O)cccc4[C@@](C)(O)[C@H]3C[C@@H]12", "note": "[tetracycline]", "values": [{"measurement": "Kd", "setting": "human RNase [7]", "result": 24.5, "unit": "µM"}]}
